ChEMBL document CHEMBL5625251, “Anti-influenza virus activities and mechanism of antrafenine analogs” (Eur J Med Chem, 2023)
The source made the active and inactive calls. The rule behind the calls is not given here.

Key:
[1] = test system: Influenza A virus; experiment: Antiviral activity against Influenza A virus A/WSN/33(H1N1) infected in MDCK cells assessed as inhibition of viral growth at 100 uM pre-infected for 1 hr followed by compound addition and measured 24 hrs post infection by plaque assay relative to control; assay type: functional; conditions: time 23 hrs
[2] = Cytotoxicity against MDCK cells assessed as reduction in cell viability incubated for 48 hrs by MTT assay; assay type: toxicity, cell-based, Canis lupus familiaris; conditions: dog
[3] = test system: MDCK; experiment: Cytotoxicity against MDCK cells assessed as reduction in cell viability at 12.5 uM incubated for 48 hrs by MTT assay; assay type: toxicity, cell-based, Canis lupus familiaris; conditions: dog
[4] = test system: Influenza A virus; experiment: Antiviral activity against Influenza A virus A/WSN/33(H1N1) infected in MDCK cells assessed as inhibition of viral growth pre-infected for 1 hr followed by compound addition and measured 24 hrs post infection by plaque assay; assay type: functional, organism-based
[5] = test system: Influenza A virus; experiment: Antiviral activity against Influenza A virus A/WSN/33(H1N1) infected in MDCK cells assessed as inhibition of viral growth 12.5 uM pre-infected for 1 hr followed by compound addition and measured 24 hrs post infection by plaque assay relative to control; assay type: functional; conditions: for inhibition: time 23.0 hrs
[6] = test system: Influenza A virus; experiment: Antiviral activity against Influenza A virus A/WSN/33(H1N1) infected in MDCK cells assessed as inhibition of viral growth at 6.25 uM pre-infected for 1 hr followed by compound addition and measured 24 hrs post infection by plaque assay relative to control; assay type: functional; conditions: time 23 hrs
[7] = test system: Influenza A virus; experiment: Antiviral activity against Influenza A virus A/WSN/33(H1N1) infected in MDCK cells assessed as inhibition of viral growth at 50 uM pre-infected for 1 hr followed by compound addition and measured 24 hrs post infection by plaque assay relative to control; assay type: functional; conditions: time 23 hrs
[8] = test system: Influenza A virus; experiment: Antiviral activity against Influenza A virus A/WSN/33(H1N1) infected in MDCK cells assessed as reduction in virus-induced cytopathic effect at 100 uM pre-infected with cells for 1 hrs followed by compound addition and measured after 2 days by MTT assay; assay type: functional, organism-based; conditions: time 2.0 day

## O=C(NCCCO)c1ccccc1Nc1ccnc2ccc(Cl)cc12
[1]
  inhibition at 100 µM: 69.5%
[2]
  CC50 at 48 h: > 100 µM

## O=C(NCCN1CCN(c2ccccc2Cl)CC1)c1ccccc1Nc1ccnc2ccc(Cl)cc12
[3]
  Activity: Toxic

## CCC(CC)O[C@@H]1C=C(C(=O)O)C[C@H](N)[C@H]1NC(C)=O [OSELTAMIVIR CARBOXYLATE]
[4]
  IC50: 9 pM

## CC(C)NC(=O)c1ccccc1Nc1ccnc2cc(C(F)(F)F)ccc12
[2]
  CC50 at 48 h: > 100 µM

## O=C(NC12CC3CC(CC(C3)C1)C2)c1ccccc1Nc1ccnc2cc(C(F)(F)F)ccc12
[3]
  Activity: Toxic

## O=C(Nc1ccccc1)c1ccccc1Nc1ccnc2cc(C(F)(F)F)ccc12
[2]
  CC50 at 48 h: > 100 µM

## O=C(NC1CCCCC1)c1ccccc1Nc1ccnc2cc(C(F)(F)F)ccc12
[5]; time 23 hrs
  inhibition at 12.5 µM: 41.3%
[2]
  CC50 at 48 h: > 50 µM

## O=C(Nc1cccc([N+](=O)[O-])c1)c1ccccc1Nc1ccnc2ccc(Cl)cc12
[6]
  inhibition at 6.25 µM: 21.4%
[3]
  Activity: Toxic

## NC(=O)c1ccccc1Nc1ccnc2ccc(Cl)cc12
[1]
  inhibition at 100 µM: 22.5%
[2]
  CC50 at 48 h: > 100 µM

## O=C(NCCN1CCN(c2cccc(Cl)c2Cl)CC1)c1ccccc1Nc1ccnc2ccc(Cl)cc12
[2]
  CC50 at 48 h: > 50 µM

## O=C(NCC(=O)N1CCOCC1)c1ccccc1Nc1ccnc2cc(C(F)(F)F)ccc12
[1]
  inhibition at 100 µM: 60.6%
[2]
  CC50 at 48 h: > 100 µM

## Cc1ccc(N2CCN(CCNC(=O)c3ccccc3Nc3ccnc4ccc(Cl)cc34)CC2)c(C)c1
[2]
  CC50 at 48 h: 22.9 µM

## CN(C)CCNC(=O)c1ccccc1Nc1ccnc2cc(C(F)(F)F)ccc12
[5]
  inhibition: inactive
[2]
  CC50 at 48 h: 17.4 µM

## O=C(NCc1ccccc1)c1ccccc1Nc1ccnc2ccc(Cl)cc12
[2]
  CC50 at 48 h: 45.3 µM

## CCOC(=O)c1ccccc1Nc1ccnc2cc(C(F)(F)F)ccc12
[1]
  inhibition at 100 µM: 9.09%
[2]
  CC50 at 48 h: > 100 µM

## CNC(=O)c1ccccc1Nc1ccnc2cc(C(F)(F)F)ccc12
[1]
  inhibition at 100 µM: 20%
[2]
  CC50 at 48 h: > 100 µM

## O=C(OCCN1CCN(c2cccc(C(F)(F)F)c2)CC1)c1ccccc1Nc1ccnc2cc(C(F)(F)F)ccc12 [ANTRAFENINE]
[2]
  CC50 at 48 h: > 100 µM

## Cc1ccccc1N1CCN(CCNC(=O)c2ccccc2Nc2ccnc3ccc(Cl)cc23)CC1
[3]
  Activity: Toxic

## O=C(CNC(=O)c1ccccc1Nc1ccnc2cc(C(F)(F)F)ccc12)NC1CCCCC1
[7]
  inhibition at 50 µM: 69.3%
[2]
  CC50 at 48 h: > 100 µM

## CN(C)CCNC(=O)c1ccccc1Nc1ccnc2ccc(Cl)cc12
[2]
  CC50 at 48 h: 19.9 µM

## O=C(NCCN1CCN(c2ccccc2)CC1)c1ccccc1Nc1ccnc2ccc(Cl)cc12
[8]
  Activity: Active
[5]
  inhibition: inactive
[2]
  CC50 at 48 h: > 100 µM
